Measurements published in paper PMC10497945, “Dual-targeting peptides@PMO, a mimetic to the pro-apoptotic protein Smac/DIABLO for selective activation of apoptosis in cancer cells” (Frontiers in Pharmacology, 2023).

Legend:
[1] = test system: Ht-29 cells; assay: Resazurin reduction viability assay; format: cell-based, human; details: Ht-29, 1, 5, and 25 µM, 48 h, n = 3
[2] = test system: HeLa S-3 cells; assay: Resazurin reduction viability assay; details: HeLa, 1, 5, and 25 µM, 48 h, n = 3
Protocol: For the resazurin-to-resorufin reduction assays, cells were grown in a 96-well plate for 120 min at 37 °C with resazurin solution (0.15 mg/ml) (Sigma-Aldrich, Milan, Italy). The fluorescence of resorufin was quantified on a PerkinElmer EnSpire 2,300 Multilabel Reader (ex 550 nm/em 590 nm). For the Apo-ONE assay, 25,000 cells were seeded in a 96-well white polystyrene microplate (Corning, United States of America). After 24 h, cells were treated for 36 h with oxaliplatin and oxaliplatin+SS35. Cells were then lysed and subjected to caspase-3/7 (DEVDase) activity assays by using the Apo-ONE Homogeneous Caspase-3/7 Assay (Promega, Madison, United States of America) according to the manufacturer’s instructions. After 30 min of incubation, fluorescence was recorded in the linear phase of the kinetics with a Synergy H1 plate reader (BioTek, Winooski, United States of America). For the trypan blue viability assay, cells were harvested, pelleted at 1500 rcf, and incubated for 5 min with a PBS/0.4% Trypan Blue solution (Gibco). At least 300 cells were counted for each condition.
First, Ht-29 and HeLa cells were treated with increasing doses (0.02, 0.04, and 0.06 μg/ml) of SS28, SS35, and SS36 for 48 h, and cell viability was assessed by resazurin reduction assays (Figure 6A). […]

[3] = Determination of PMO peptide functionalization by absorbance; format: physicochemical; details: UV absorbance in ethanol, Phe (257 nm) and Fmoc-Ala (267 nm) calibration curves, PMO baseline subtracted; estimated
Protocol: To quantify the amounts of peptides on the PMO, a Varian Cary 50 bio benchtop spectrophotometer in the range of 200–800 nm with a 1-nm step was used ([Faura et al. 2021]). The calibration curves were determined by preparing five solutions at known concentrations of Phenylalanine and Fmoc-Alanine used as standards. Briefly, a stock solution of 5 mM Phe in absolute ethanol was diluted to the final concentrations of 0.2 mM, 0.5 mM, […], 2 mM, and 5 mM. A standard solution of 52.7 μM Fmoc-Alanine (Ala) in absolute ethanol was diluted to the concentrations of 20 μM, 10 μM, 5 μM, and 2 μM. The fluorescence signals were recorded for Phenylalanine (Phe: λex 240 nm and λem 282 nm) ([Lakowicz, 2006]) and Fmoc-Ala (λex […] and λem 280 nm) ([Pappas et al., 2014]) and plotted against their respective sample concentrations. […]
The absorbance values of peptides linked to PMOs were adjusted to account for potential interference caused by PMOs, which can scatter or absorb light in the visible and UV ranges, leading to inaccuracies in absorbance measurements of chromophores. The absorbance spectrum of PMO was subtracted from the absorbance spectrum of the sample containing the peptide@PMO. In the region of absorption of the chromophore, we observed a linear and well-defined relationship between the absorbance of PMO and wavelength. […]

Compound	cytotoxicity of free peptide compared with nanoparticle-conjugated peptide [1]	cytotoxicity of free peptide compared with nanoparticle-conjugated peptide [2]	Peptide/PMO: peptide amount binding for each milligram of PMO [3] [mg]
N=C(N)NCCC[C@@H]1NC(=O)[C@H](CCCCN)NC(=O)[C@@H](Cc2ccccc2)NC(=O)[C@H](CC(=O)O)NC(=O)CNC1=O [p28, cyclic[RGDfK]]	significantly attenuated	significantly attenuated	
FmocAVPI@PMO [Fmoc-protected AVPI peptide conjugated to PMO, apparently the precursor of SS36]			0.074
